Results published in patent US20240109934A1, “ANTIBIOTICS WITH IMPROVED DRUG RESISTANCE PROFILE” (priority 2021, published 2024).
Values after ≈ are worked out from the molar mass of the structure shown.

How the values were obtained:
[1] = system: S. aureus 29213; experiment: MIC shift with 50% human serum; format: cell-based; settings: S. aureus 29213, 50% human serum vs none
Procedure: Antimicrobial Susceptibility Tests. Susceptibility testing was performed in biological triplicate, using the micro-dilution broth method as outlined by the Clinical and Laboratory Standards Institute. […] Human serum (Ultrafiltrate, unspecified gender, 30K Dalton membrane filtered) was purchased from BioIVT (Hicksville, NY).

[2] = Mouse liver microsome stability assay; format: in vitro ADME; settings: 3 h at 37° C., LC-MS/MS, ± SEM of 3 biological replicates
Procedure: Mouse Liver Microsome Stability Assay. A mixture of PBS (pH 7.4), NADPH regenerating system solution A (Corning Life Sciences), and NADPH regenerating system solution B (Corning Life Sciences) was incubated at 37° C. in a shaking incubator for 5 min. Next, compound was added in DMSO (final concentration 50 μM, 0.5% DMSO) before ice-cold mouse liver microsomes (Thermo Fisher, male CD-1 mice, pooled) were added (final protein concentration of 1 mg/mL). An aliquot was immediately removed, quenched with an equal volume of 100 μM internal standard and centrifuged at 13,000 rcf for 3 min. The reactions were incubated at 37° C. in a shaking incubator for 3 h. A second aliquot was removed and quenched. Samples were analyzed with the 5500 QTRAP LC/MS/MS system (Sciex, Framingham, MA) in Metabolomics Lab of Roy J. Carver Biotechnology Center, University of Illinois at Urbana-Champaign. Software Analyst 1.6.2 was used for data acquisition and analysis. The 1200 series HPLC system (Agilent Technologies, Santa Clara, CA) includes a degasser, an autosampler, and a binary pump. The LC separation was performed on an Agilent Sb-Aq column (4.6×50 mm, […]) with mobile phase A (0.1% formic acid in water) and mobile phase B (0.1% formic acid in acetonitrile). The flow rate was 0.3 mL/min. The linear gradient was as follows: 0-3 min, 100% A; 10-16 min, 5% A; 16.5-22 min, 100% A. The autosampler was set at 10° C. The injection volume was 1 μL. Mass spectra were acquired under both positive (ion spray voltage was +5500 V) and negative (ion spray voltage was −4500 V) electrospray ionization (ESI). The source temperature was 450° C. The curtain gas, ion source gas 1, and ion source gas 2 were 33, 65, and 60 psi, respectively. Multiple reaction monitoring (MRM) was used for quantitation.

[3] = system: FA-Resistant strains of S. aureus; experiment: MIC against 11 FA-resistant strains generated at 4x-32x the MIC; format: cell-based; settings: for MIC: Staphylococcus aureus
Procedure: Antimicrobial Susceptibility Tests. Susceptibility testing was performed in biological triplicate, using the micro-dilution broth method as outlined by the Clinical and Laboratory Standards Institute. Bacteria were cultured with cation-adjusted Muller-Hinton broth (Sigma-Aldrich, Cat #90922) in round-bottom 96-well plates (Corning, Cat #3788). Human serum (Ultrafiltrate, unspecified gender, 30K Dalton membrane filtered) was purchased from BioIVT (Hicksville, NY).
Selection of Resistant Mutants. Resistant mutants were selected via the large inoculum method. Briefly, S. aureus ATCC 29213 (1×10^9 CFU) were plated on 100 mm plates of LB agar containing 4, 2, 1, 0.5, and 0.25 μg/mL.
Sequencing of fusA. FusA was amplified by colony PCR. Colonies were picked and diluted in 100 μL sterile H2O. PCR reactions are setup by combining MiFi Mix (Bioline, London, UK), 20 μM primer mix [fusA-F2, fusA_seq1, Forward EF-G2, and Reverse EF-G](S. aureus ATCC 29213), template DNA, and H2O. Reactions were performed on C1000 Thermal Cycler (Bio-Rad, Hercules, CA) with the following conditions: 5 minutes denaturation at 95° C., followed by 30 cycles of 20 seconds at 95° C., 20 seconds at 50° C., and either 1 minute (fusA1) or 1.5 minutes (fusA2) at 72° C. A 10 μL portion of the PCR reaction mixture was analyzed by agarose gel to confirm the product. PCR reactions were purified using GeneJET PCR Purification Kit (Thermo Scientific). PCR amplicons were submitted to the Core DNA Sequencing Facility at the University of Illinois at Urbana-Champaign for Sanger sequencing with the following primers to sequence the fusA [fusA2, fusA_seq1, Forward EF-G2, Forward EF-G3, Forward EF-G4]

[4] = system: multidrug-resistant clinical isolates of S. aureus; experiment: MIC against multidrug-resistant clinical isolates of S. aureus; format: cell-based; settings: for MIC: Staphylococcus aureus
[5] = system: S. aureus ATCC BAA-1721; experiment: MIC against strain possessing the fusC gene; format: cell-based; settings: Staphylococcus aureus, ATCCBAA1721
[6] = system: S. aureus ATCC 29213; experiment: Neutropenic thigh infection burden study, sensitive strain; format: in vivo; settings: neutropenic CD-1 mice, 50 mg/kg IP at 1, 2, 3 h post infection, burden at 24 h

## CC(=O)O[C@H]1C[C@@]2(C)[C@@H](C[C@@H](O)[C@H]3[C@@]4(C)CC[C@@H](O)[C@@H](C)[C@@H]4CC[C@@]32C)/C1=C(\CCC=C1CCCC1)C(=O)O [FA-CP, (Z)-2-((3R,4S,5S,8S,9S,10S,11R,13R,14S,16S)-16-acetoxy-3,11-dihydroxy-4,8,10,14-tetramethylhexadecahydro-17H-cyclopenta[a]phenanthren-17-ylidene)-5-cyclopentylidenepentanoic acid]
[1]
  Fold Change Increase in MIC with 50% Human Serum: 8X
[2]
  Metabolic Stability in Mouse Liver Microsomes (percent remaining): 78 ± 4%
[3]; strain FA-4X-A, EF-G T385N
  MIC: 2 µg/mL (≈ 3.68 µM)
[3]; strain FA-4X-B, EF-G T385N
  MIC: 2 µg/mL (≈ 3.68 µM)
[3]; strain FA-8X-A, EF-G T385N
  MIC: 2 µg/mL (≈ 3.68 µM)
[3]; strain FA-8X-B, EF-G R464L
  MIC: 8 µg/mL (≈ 14.7 µM)
[3]; strain FA-16X-A, EF-G H457Y
  MIC: 64 µg/mL (≈ 118 µM)
[3]; strain FA-32X-A, EF-G F88L
  MIC: 128 µg/mL (≈ 236 µM)
[3]; strain FA-32X-B, EF-G P406L
  MIC: 4 µg/mL (≈ 7.37 µM)
[3]; strain FA-32X-C, EF-G H457L
  MIC: 128 µg/mL (≈ 236 µM)
[3]; strain FA-32X-D, EF-G T436I
  MIC: 2 µg/mL (≈ 3.68 µM)
[3]; strain FA-32X-E, EF-G H457N
  MIC: 128 µg/mL (≈ 236 µM)
[3]; strain FA-32X-F, EF-G D434N
  MIC: 32 µg/mL (≈ 59 µM)
[3]; eleven FA-resistant S. aureus strains
  Fold improvement in activity against FA-resistant strains relative to FA: 2-8 fold
[4]; 29 clinical isolates of S. aureus
  Cross-resistance with vancomycin: no cross-resistance with vancomycin
[4]; NRS3, S. aureus NRS3 (NARSA)
  MIC: 0.0625 µg/mL (≈ 0.115 µM)
[4]; NRS4, S. aureus NRS4 (NARSA)
  MIC: 0.0625 µg/mL (≈ 0.115 µM)
[4]; NRS17, S. aureus NRS17 (NARSA)
  MIC: 0.0625 µg/mL (≈ 0.115 µM)
[4]; NRS18, S. aureus NRS18 (NARSA)
  MIC: 0.125 µg/mL (≈ 0.23 µM)
[4]; NRS21, S. aureus NRS21 (NARSA)
  MIC: 0.0625 µg/mL (≈ 0.115 µM)
[4]; NRS22, S. aureus NRS22 (NARSA)
  MIC: 0.0625 µg/mL (≈ 0.115 µM)
[4]; NRS23, S. aureus NRS23 (NARSA)
  MIC: 0.125 µg/mL (≈ 0.23 µM)
[4]; NRS24, S. aureus NRS24 (NARSA)
  MIC: 0.0625 µg/mL (≈ 0.115 µM)
[4]; NRS26, S. aureus NRS26 (NARSA)
  MIC: 0.0625 µg/mL (≈ 0.115 µM)
[4]; NRS27, S. aureus NRS27 (NARSA)
  MIC: 0.125 µg/mL (≈ 0.23 µM)
[4]; NRS29, S. aureus NRS29 (NARSA)
  MIC: 0.125 µg/mL (≈ 0.23 µM)
[4]; NRS51, S. aureus NRS51 (NARSA)
  MIC: 0.0625 µg/mL (≈ 0.115 µM)
[4]; NRS68, S. aureus NRS68 (NARSA)
  MIC: 0.125 µg/mL (≈ 0.23 µM)
[4]; NRS73, S. aureus NRS73 (NARSA)
  MIC: 0.125 µg/mL (≈ 0.23 µM)
[4]; NRS74, S. aureus NRS74 (NARSA)
  MIC: 0.125 µg/mL (≈ 0.23 µM)
[4]; NRS76, S. aureus NRS76 (NARSA)
  MIC: 0.125 µg/mL (≈ 0.23 µM)
[4]; NRS77, S. aureus NRS77 (NARSA), no noted resistance
  MIC: 0.0625 µg/mL (≈ 0.115 µM)
[4]; NRS382, S. aureus NRS382 (NARSA)
  MIC: 0.0625 µg/mL (≈ 0.115 µM)
[4]; NRS383, S. aureus NRS383 (NARSA)
  MIC: 0.125 µg/mL (≈ 0.23 µM)
[4]; NRS384, S. aureus NRS384 (NARSA)
  MIC: 0.125 µg/mL (≈ 0.23 µM)
[4]; S. aureus AR0561 (CDC)
  MIC: 0.125 µg/mL (≈ 0.23 µM)
[4]; S. aureus AR0562 (CDC)
  MIC: 0.125 µg/mL (≈ 0.23 µM)
[4]; S. aureus AR0563 (CDC)
  MIC: 0.125 µg/mL (≈ 0.23 µM)
[4]; S. aureus AR0564 (CDC)
  MIC: 0.125 µg/mL (≈ 0.23 µM)
[4]; S. aureus AR0565 (CDC)
  MIC: 0.0625 µg/mL (≈ 0.115 µM)
[4]; S. aureus AR0566 (CDC)
  MIC: 0.125 µg/mL (≈ 0.23 µM)
[4]; S. aureus AR0567 (CDC)
  MIC: 0.125 µg/mL (≈ 0.23 µM)
[4]; S. aureus AR0568 (CDC)
  MIC: 0.125 µg/mL (≈ 0.23 µM)
[4]; S. aureus AR0570 (CDC)
  MIC: 0.125 µg/mL (≈ 0.23 µM)
[5]
  MIC: 8 µg/mL (≈ 14.7 µM)
[6]
  Bacterial burden in thigh: Significant reductions in bacterial burden
